Measurements as given in publication PMC9189076 (Oncogene, 2022).

Assays:
WDR5 [1] = biological target: T1, WDR5 (Homo sapiens, UniProt P61964); assay: Isothermal titration calorimetry; format: binding; settings: for binding to WDR5 (ITC, in words): MS169 compared to MS40
[2] = biological target: VHL–Elongin C–Elongin B ternary complex (VCB) (Homo sapiens, UniProt P40337); assay: ITC, binding to VHL E3 ligase complex; settings: compared to MS40
IKZF1 and IKZF3 = assay: IKZF1/IKZF3 degradation by immunoblotting in cells; format: cell-based, human; settings: MV4;11, RS4;11 and other cell lines
MLL-AF9 + AML PDX tumors = assay: MLL-AF9+ AML PDX subcutaneous xenograft efficacy; format: in vivo, NSG-SGM3 mice; settings: i.p. once a day, 5 days per week; MS40 100 mg/kg, MS169 34 mg/kg, MS40N2 100 mg/kg
[3] = Compound concentrations in plasma and tumor of PDX-bearing mice; format: in vivo, NSG-SGM3 mice; settings: two hours post last dose; MS40 100 mg/kg, MS169 34 mg/kg, MS40N2 100 mg/kg
[4] = biological target: CRBN's C-terminal thalidomide binding domain (CRBN-TBD) (Homo sapiens, UniProt Q96SW2); assay: ITC, binding to CRBN thalidomide-binding domain
H3K4me2 = assay: Global histone methylation immunoblotting in MV4; format: cell-based, human; settings: MV4;11 cells, 0.5 μM, 4 days
MV4;11 cells = assay: RNA-seq transcriptomic profiling in MV4; format: cell-based, human
WDR5 [5] = biological target: T1, WDR5; settings: five lines of MLL-r AML and eight lines of breast cancer, 18 h
LIMD1 = LIMD1 (Homo sapiens, UniProt Q9UGP4); assay: LIMD1 degradation by immunoblotting in MV4; format: cell-based; settings: MV4;11 and RS4;11 cells, 0.5 μM, 18 h
[6] = tested on: BT549 and SUM149 breast cancer cells; assay: Anti-proliferative effect in breast cancer cells; format: cell-based; settings: MS40 relative to MS40N1 and OICR-9429
CRBN-TBD = settings: read-out: KD, affinity to CRBN-TBD; cited from earlier work

CRBN's C-terminal thalidomide binding domain (CRBN-TBD), sequence (Q96SW2 318-426 limits assumed): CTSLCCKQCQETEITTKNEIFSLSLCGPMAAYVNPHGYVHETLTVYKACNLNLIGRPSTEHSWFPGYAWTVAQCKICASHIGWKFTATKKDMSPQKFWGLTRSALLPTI
LIMD1, sequence (Q9UGP4 whole entry): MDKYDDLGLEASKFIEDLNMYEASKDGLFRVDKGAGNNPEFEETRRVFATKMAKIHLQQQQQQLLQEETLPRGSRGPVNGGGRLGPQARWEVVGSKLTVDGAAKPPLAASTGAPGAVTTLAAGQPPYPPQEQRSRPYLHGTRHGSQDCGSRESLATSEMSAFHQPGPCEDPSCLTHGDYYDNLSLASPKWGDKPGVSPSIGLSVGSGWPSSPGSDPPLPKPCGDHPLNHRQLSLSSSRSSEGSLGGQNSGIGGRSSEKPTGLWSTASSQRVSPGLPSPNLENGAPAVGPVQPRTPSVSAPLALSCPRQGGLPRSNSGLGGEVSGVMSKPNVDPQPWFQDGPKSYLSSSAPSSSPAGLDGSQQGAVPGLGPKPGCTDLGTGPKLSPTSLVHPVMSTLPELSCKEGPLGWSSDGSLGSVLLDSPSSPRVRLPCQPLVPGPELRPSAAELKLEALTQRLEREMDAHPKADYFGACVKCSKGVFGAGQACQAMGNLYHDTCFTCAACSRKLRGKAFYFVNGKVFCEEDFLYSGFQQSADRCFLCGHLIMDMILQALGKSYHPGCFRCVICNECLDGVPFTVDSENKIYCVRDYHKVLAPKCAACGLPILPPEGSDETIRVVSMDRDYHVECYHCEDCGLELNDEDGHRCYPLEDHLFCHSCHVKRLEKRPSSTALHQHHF
VHL–Elongin C–Elongin B ternary complex (VCB), sequence (P40337 54-213 limits assumed): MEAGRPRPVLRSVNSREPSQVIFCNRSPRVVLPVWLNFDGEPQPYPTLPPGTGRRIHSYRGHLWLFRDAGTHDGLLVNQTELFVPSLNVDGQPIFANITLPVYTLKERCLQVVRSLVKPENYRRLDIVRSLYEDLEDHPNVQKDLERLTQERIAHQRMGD
VHL–Elongin C–Elongin B ternary complex (VCB), sequence (Q15369 17-112 partner limits assumed): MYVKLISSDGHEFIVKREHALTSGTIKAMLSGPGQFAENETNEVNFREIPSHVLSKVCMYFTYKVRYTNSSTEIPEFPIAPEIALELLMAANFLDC
VHL–Elongin C–Elongin B ternary complex (VCB), sequence (Q15370 1-104 partner limits assumed): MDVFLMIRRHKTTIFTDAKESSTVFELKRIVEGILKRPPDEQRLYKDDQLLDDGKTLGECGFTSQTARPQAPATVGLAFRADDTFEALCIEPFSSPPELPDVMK

SMILES | binding to WDR5 (ITC, in words) (WDR5 [1]) | IKZF1/IKZF3 degradation (immunoblot) (IKZF1 and IKZF3) | PDX tumor growth compared to vehicle (MLL-AF9 + AML PDX tumors) | detected concentrations in plasma and tumor samples post-treatment [3] | global H3K4me2 level (H3K4me2) | further results
Cc1ncsc1-c1ccc(CNC(=O)[C@@H]2C[C@@H](O)CN2C(=O)[C@@H](NC(=O)CCCCCCCCCC(=O)NCCN2CCN(Cc3cccc(-c4ccc(N5CCN(C)CC5)c(NC(=O)c5c[nH]c(=O)cc5C(F)(F)F)c4)c3)CC2)C(C)(C)C)cc1 [MS169] | comparable binding affinities to WDR5 and E3 ligase | without affecting IKZF1/3 | no detected inhibitory effects on PDX tumor growth | higher than those of MS40 | – | binding to E3 ligase (ITC, in words) [2]: comparable binding affinities to WDR5 and E3 ligase
CN1CCN(c2ccc(-c3cccc(CN4CCN(CCNC(=O)CCCCCCCNc5cccc6c5C(=O)N(C5CCC(=O)N(C)C5=O)C6=O)CC4)c3)cc2NC(=O)c2c[nH]c(=O)cc2C(F)(F)F)CC1 (stereo not shown) [MS40N1] | – | – | – | – | but not OICR-9429 or MS40N1 | fold lower binding affinity to WDR5 compared to OICR-9429 (WDR5 [1]; ITC): 4 fold; Kd (WDR5 [1]; read-out: KD, binding affinity to WDR5, ITC, 25 °C, mean ± SD of three experiments): 0.13 ± 0.001 µM; KD, affinity to CRBN-TBD ([4]; 25 °C, mean ± SD): no binding was observed; gene-expression changes compared to DMSO (RNA-seq) (MV4;11 cells): did not result in significant gene-expression changes; WDR5 degradation in panel of cell lines (WDR5 [5]): did not induce notable WDR5 reduction
Nc1cccc2c1C(=O)N(C1CCC(=O)NC1=O)C2=O (stereo not shown) [pomalidomide] | – | led to degradation of IKZF1/3 | – | – | did not affect global H3K4me2 | LIMD1 degradation (immunoblot) (LIMD1): but not LIMD1; anti-proliferative effect in BT549 and SUM149 [6]: unaffected; Kd (CRBN-TBD): 16 ± 4 µM
CN1CCN(c2ccc(-c3cccc(CN4CCOCC4)c3)cc2NC(=O)c2c[nH]c(=O)cc2C(F)(F)F)CC1 [OICR-9429] | – | – | – | – | but not OICR-9429 or MS40N1 | –
O=C(CCCCCCCNc1cccc2c1C(=O)N(C1CCC(=O)NC1=O)C2=O)NCCN1CCN(Cc2cccc(-c3ccc(N4CCOCC4)c(NC(=O)c4c[nH]c(=O)cc4C(F)(F)F)c3)c2)CC1 (stereo not shown) [MS40N2] | not bind WDR5 | induced degradation of IKZF1 and IKZF3 | no detected inhibitory effects on PDX tumor growth | higher than those of MS40 | – | binding to CRBN (ITC, in words) [4]: bind CRBN with a similar affinity as MS40
